Experimental data: patent US10638756B2, “Molecules having pesticidal utility, and intermediates, compositions, and processes, related thereto” (Dow AgroSciences LLC, priority 2017, dated 2020)

Key:
[1] = system: Cabbage Looper (Trichoplusia ni); test: Bioassay on Cabbage Looper (CL), 128-well diet tray assay; assay type: in vivo; settings: 168 h, 50 μg/cm^2 on artificial diet, second instar larvae, five to seven days, read-out: CL % Control (or Mortality) rating
Procedure, shortened: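 Activity is mean percent mortality over eight wells of second-instar larvae exposed to diet treated at 50 μg/cm^2 for 5–7 days at 25° C.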

[2] = system: Beet Armyworm (Spodoptera exigua); test: Bioassay on Beet Armyworm (BAW), 128-well diet tray assay; assay type: in vivo; settings: for mortality at 50 µg/cm2: Spodoptera exigua, 168 h, 50 μg/cm^2 on artificial diet, second instar larvae, five to seven days, read-out: BAW % Control (or Mortality) rating

| SMILES | mortality at 50 µg/cm2 [1] [%] | mortality at 50 µg/cm2 [2] [%] | BAW (Table CD-1) ([2]; 0.05 μg/cm^2) | BAW (Table CD-1) ([2]; 5.0 μg/cm^2) | BAW (Table CD-1) ([2]; 50 μg/cm^2) |
| --- | --- | --- | --- | --- | --- |
| Nc1ccccc1NNC(=O)c1ccc(/C(F)=C/C(c2cc(Cl)c(Cl)c(Cl)c2)C(F)(F)F)cc1C(F)(F)F (stereo not shown) [F156, (Z)—N′-(2-aminophenyl)-4-(1,4,4,4-tetrafluoro-3-(3,4,5-trichlorophenyl)but-1-en-1-yl)-2-(trifluoromethyl)benzohydrazide] | 50 to 100 | 50 to 100 |  |  |  |
| CN(NC(=O)c1ccc(/C(F)=C/C(c2cc(Cl)c(Cl)c(Cl)c2)C(F)(F)F)cc1C(F)(F)F)c1nccc(C(F)(F)F)n1 (stereo not shown) [F91, (Z)—N′-methyl-4-(1,4,4,4-tetrafluoro-3-(3,4,5-trichlorophenyl)but-1-en-1-yl)-2-(trifluoromethyl)-N′-(4-(trifluoromethyl)pyrimidin-2-yl)benzohydrazide] | 50 to 100 | 50 to 100 |  |  |  |
| O=C(Nn1ccc2ccccc21)c1ccc(/C(F)=C/C(c2cc(Cl)c(Cl)c(Cl)c2)C(F)(F)F)cc1C(F)(F)F (stereo not shown) [F89, (Z)—N-(1H-Indol-1-yl)-4-(1,4,4,4-tetrafluoro-3-(3,4,5-trichlorophenyl)but-1-en-1-yl)-2-(trifluoromethyl)benzamide] | 50 to 100 | 50 to 100 |  |  |  |
| COCN(NC(=O)c1ccc(/C(F)=C/C(c2cc(Cl)c(Cl)c(Cl)c2)C(F)(F)F)cc1C(F)(F)F)c1ncccn1 (stereo not shown) [F179, (Z)—N′-(methoxymethyl)-N′-(pyrimidin-2-yl)-4-(1,4,4,4-tetrafluoro-3-(3,4,5-trichlorophenyl)but-1-en-1-yl)-2-(trifluoromethyl)benzohydrazide] | 50 to 100 | 50 to 100 |  |  |  |
| CN(CC1CC1)NC(=O)c1ccc(/C(F)=C/C(c2cc(Cl)c(Cl)c(Cl)c2)C(F)(F)F)cc1C(F)(F)F (stereo not shown) [F159, (Z)—N′-(Cyclopropylmethyl)-N′-methyl-4-(1,4,4,4-tetrafluoro-3-(3,4,5-trichlorophenyl)but-1-en-1-yl)-2-(trifluoromethyl)benzohydrazide] | 50 to 100 | 50 to 100 |  |  |  |
| O=C(NNc1nccc(C(F)(F)F)n1)c1ccc(/C(F)=C/C(c2cc(Cl)c(Cl)c(Cl)c2)C(F)(F)F)cc1C(F)(F)F (stereo not shown) [F44, (Z)-4-(1,4,4,4-Tetrafluoro-3-(3,4,5-trichlorophenyl)but-1-en-1-yl)-2-(trifluoromethyl)-N′-(4-(trifluoromethyl)pyrimidin-2-yl)benzohydrazide] | 50 to 100 | 50 to 100 |  |  |  |
| O=C(Nn1ccnn1)c1ccc(/C(F)=C/C(c2cc(Cl)c(Cl)c(Cl)c2)C(F)(F)F)cc1C(F)(F)F (stereo not shown) [F62, (Z)-4-(1,4,4,4-Tetrafluoro-3-(3,4,5-trichlorophenyl)but-1-en-1-yl)-N-(1H-1,2,3-triazol-1-yl)-2-(trifluoromethyl)benzamide] | 50 to 100 | 50 to 100 |  |  |  |
| N#CCCNNC(=O)c1ccc(/C(F)=C/C(c2cc(Cl)c(Cl)c(Cl)c2)C(F)(F)F)cc1C(F)(F)F (stereo not shown) [F142, (Z)—N′-(2-Cyanoethyl)-4-(1,4,4,4-tetrafluoro-3-(3,4,5-trichlorophenyl)but-1-en-1-yl)-2-(trifluoromethyl)benzohydrazide] | 50 to 100 | 50 to 100 |  |  |  |
| O=C(NNC1CCCCC1)c1ccc(/C(F)=C/C(c2cc(Cl)c(Cl)c(Cl)c2)C(F)(F)F)cc1C(F)(F)F (stereo not shown) [F137, (Z)—N′-Cyclohexyl-4-(1,4,4,4-tetrafluoro-3-(3,4,5-trichlorophenyl)but-1-en-1-yl)-2-(trifluoromethyl)benzohydrazide] | 50 to 100 | 50 to 100 |  |  |  |
| O=C(NNc1ncccn1)c1ccc(/C(F)=C/C(c2ccc(Cl)c(Br)c2)C(F)(F)F)cc1C(F)(F)F (stereo not shown) [F178, (Z)-4-(3-(3-Bromo-4-chlorophenyl)-1,4,4,4-tetrafluorobut-1-en-1-yl)-N′-(pyrimidin-2-yl)-2-(trifluoromethyl)benzohydrazide] | 50 to 100 | 50 to 100 |  |  |  |
| O=C(NNc1ncccn1)c1ccc(/C(F)=C/C(c2cc(Cl)c(Cl)c(Cl)c2)C(F)(F)F)cc1Cl (stereo not shown) [F20, (Z)-2-Chloro-N′-(pyrimidin-2-yl)-4-(1,4,4,4-tetrafluoro-3-(3,4,5-trichlorophenyl)but-1-en-1-yl)benzohydrazide] | 50 to 100 | 50 to 100 |  |  |  |
| CN(NC(=O)c1ccc(/C(F)=C/C(c2cc(F)c(F)c(Cl)c2)C(F)(F)F)cc1C(F)(F)F)c1ncccn1 (stereo not shown) [F175, (Z)-4-(3-(3-Chloro-4,5-difluorophenyl)-1,4,4,4-tetrafluorobut-1-en-1-yl)-N′-methyl-N′-(pyrimidin-2-yl)-2-(trifluoromethyl)benzohydrazide] | 50 to 100 | 50 to 100 |  |  |  |
| Cc1ccc(NNC(=O)c2ccc(/C(F)=C/C(c3cc(Cl)c(Cl)c(Cl)c3)C(F)(F)F)cc2C(F)(F)F)cc1 (stereo not shown) [F68, (Z)-4-(1,4,4,4-Tetrafluoro-3-(3,4,5-trichlorophenyl)but-1-en-1-yl)-N′-(p-tolyl)-2-(trifluoromethyl)benzohydrazide] | 50 to 100 | 50 to 100 |  |  |  |
| O=C(NNc1ncccn1)c1ccc(/C(F)=C/C(c2ccc(C(F)(F)F)c(Cl)c2)C(F)(F)F)cc1C(F)(F)F (stereo not shown) [F167, (Z)-4-(3-(3-Chloro-4-(trifluoromethyl)phenyl)-1,4,4,4-tetrafluorobut-1-en-1-yl)-N′-(pyrimidin-2-yl)-2-(trifluoromethyl)benzohydrazide] | 50 to 100 | 50 to 100 |  |  |  |
| CC(C)(C)NNC(=O)c1ccc(/C(F)=C/C(c2cc(Cl)c(Cl)c(Cl)c2)C(F)(F)F)cc1C(F)(F)F (stereo not shown) [F40, (Z)—N′-(tert-Butyl)-4-(1,4,4,4-tetrafluoro-3-(3,4,5-trichlorophenyl)but-1-en-1-yl)-2-(trifluoromethyl)benzohydrazide] | 50 to 100 | 50 to 100 |  |  |  |
| NN(C(=O)c1ccc(/C(F)=C/C(c2cc(Cl)c(Cl)c(Cl)c2)C(F)(F)F)cc1C(F)(F)F)C1CC1 (stereo not shown) [F112, (Z)—N-Cyclopropyl-4-(1,4,4,4-tetrafluoro-3-(3,4,5-trichlorophenyl)but-1-en-1-yl)-2-(trifluoromethyl)benzohydrazide] | 50 to 100 | 50 to 100 |  |  |  |
| CN(NC(=O)c1ccc(/C(F)=C/C(c2cc(Cl)c(Cl)c(Cl)c2)C(F)(F)F)cc1Cl)c1ncccn1 (stereo not shown) [F43, (Z)-2-Chloro-N′-methyl-N′-(pyrimidin-2-yl)-4-(1,4,4,4-tetrafluoro-3-(3,4,5-trichlorophenyl)but-1-en-1-yl)benzohydrazide] | 50 to 100 | 50 to 100 |  |  |  |
| Cc1cc(/C(F)=C/C(c2cc(Cl)c(Cl)c(Cl)c2)C(F)(F)F)ccc1C(=O)NNc1ncccn1 (stereo not shown) [F37, (Z)-2-Methyl-N′-(pyrimidin-2-yl)-4-(1,4,4,4-tetrafluoro-3-(3,4,5-trichlorophenyl)but-1-en-1-yl)benzohydrazide] | 50 to 100 | 50 to 100 | 0 | 100 | 100 |
| O=C(NNC1CCS(=O)(=O)C1)c1ccc(/C(F)=C/C(c2cc(Cl)c(Cl)c(Cl)c2)C(F)(F)F)cc1C(F)(F)F (stereo not shown) [F135, (Z)—N′-(1,1-Dioxidotetrahydrothiophen-3-yl)-4-(1,4,4,4-tetrafluoro-3-(3,4,5-trichlorophenyl)but-1-en-1-yl)-2-(trifluoromethyl)benzohydrazide] | 50 to 100 | 50 to 100 |  |  |  |
| O=C(NNc1ncccn1)c1ccc(/C(F)=C/C(c2cc(F)c(F)c(Cl)c2)C(F)(F)F)cc1C(F)(F)F (stereo not shown) [F174, (Z)-4-(3-(3-Chloro-4,5-difluorophenyl)-1,4,4,4-tetrafluorobut-1-en-1-yl)-N′-(pyrimidin-2-yl)-2-(trifluoromethyl)benzohydrazide] | 50 to 100 | 50 to 100 |  |  |  |
| O=C(NNc1cccnn1)c1ccc(/C(F)=C/C(c2cc(Cl)c(Cl)c(Cl)c2)C(F)(F)F)cc1C(F)(F)F (stereo not shown) [F86] | 50 to 100 | 50 to 100 |  |  |  |
| O=C(/N=N/c1ncccn1)c1ccc(/C(F)=C/C(c2cc(Cl)c(Cl)c(Cl)c2)C(F)(F)F)cc1C(F)(F)F (stereo not shown) [F192, ((E)-pyrimidin-2-yldiazenyl)(4-((Z)-1,4,4,4-tetrafluoro-3-(3,4,5-trichlorophenyl)but-1-en-1-yl)-2-(trifluoromethyl)phenyl)methanone] | 50 to 100 | 50 to 100 |  |  |  |
| NN(CC1CC1)C(=O)c1ccc(/C(F)=C/C(c2cc(Cl)c(Cl)c(Cl)c2)C(F)(F)F)cc1C(F)(F)F (stereo not shown) [F98, (Z)—N-(Cyclopropylmethyl)-4-(1,4,4,4-tetrafluoro-3-(3,4,5-trichlorophenyl)but-1-en-1-yl)-2-(trifluoromethyl)benzohydrazide] | 50 to 100 | 50 to 100 |  |  |  |
| C=C(OCC)c1c(Cl)cc(C(/C=C(\F)c2ccc(C(=O)NNc3ncccn3)c(C(F)(F)F)c2)C(F)(F)F)cc1Cl (stereo not shown) [F190, (Z)-4-(3-(3,5-Dichloro-4-(1-ethoxyvinyl)phenyl)-1,4,4,4-tetrafluorobut-1-en-1-yl)-N′-(pyrimidin-2-yl)-2-(trifluoromethyl)benzohydrazide] | 50 to 100 | 50 to 100 |  |  |  |
| O=C(NNc1ncccc1[N+](=O)[O-])c1ccc(/C(F)=C/C(c2cc(Cl)c(Cl)c(Cl)c2)C(F)(F)F)cc1C(F)(F)F (stereo not shown) [F132, (Z)—N′-(3-Nitropyridin-2-yl)-4-(1,4,4,4-tetrafluoro-3-(3,4,5-trichlorophenyl)but-1-en-1-yl)-2-(trifluoromethyl)benzohydrazide] | 50 to 100 | 50 to 100 |  |  |  |
| CN(NC(=O)c1ccc(/C(F)=C/C(c2ccc(OC(F)(F)F)c(Cl)c2)C(F)(F)F)cc1C(F)(F)F)c1ccccn1 (stereo not shown) [F107, (Z)-4-(3-(3-Chloro-4-(trifluoromethoxy)phenyl)-1,4,4,4-tetrafluorobut-1-en-1-yl)-N′-methyl-N′-(pyridin-2-yl)-2-(trifluoromethyl)benzohydrazide] | 50 to 100 | 50 to 100 |  |  |  |
